Measured values taken from patent US6562833B1 (priority 1998, dated 2003).

How the values were obtained:
Assay type in all cases: in vivo
Puccinia recondita = test: Comparative Experiment 2 - curative activity against Puccinia recondita on wheat (wheat leaf rust); settings: potted wheat seedlings c.v. Kanzler, aqueous 250 ppm preparation sprayed the day after inoculation, assessed after 7 days, untreated plants 100% infected
From the text: (§1) The active ingredients were formulated separately or jointly as a 10% emulsion in a mixture of 70% by weight of cyclohexanone, 20% by weight of Nekanil® LN (Lutensol® AP6, wetting agent having emulsifying and dispersant action based on ethoxylated alkylphenols) and 10% by weight of Wettol® EM (nonionic emulsifier based on ethoxylated castor oil) and diluted with water to give the desired concentration.
Leaves of potted wheat seedlings c.v. “Kanzler” were dusted with spores of wheat leaf rust (Puccinia recondita). Thereafter, the pots were kept in a chamber of high atmospheric humidity (90 to 95%), at 20 to 22° C. for 24 hours. During this time, the spores germinated and the germ tubes penetrated into the leaf tissue. The next day, the infected plants were sprayed to runoff point with an aqueous 250 ppm preparation of active compound which had been made up from a stock solution consisting of 10% of active compound, 63% of cyclohexanone and 27% of emulsifier. After the spraycoating had dried on, the test plants were cultivated in a greenhouse at 20-22° C. and 65-70% relative atmospheric humidity for 7 days. The extent of the rust fungus development on the leaves was then determined.

Plasmopara viticola [1] = test: Comparative Experiment 1 - activity against Plasmopara viticola on grapevine leaves (persistency, 500 ppm); settings: potted grapevines c.v. Müller-Thurgau; aqueous 500 ppm preparation sprayed to runoff; inoculated 7 days after treatment; untreated plants 85% infected
From the text: as §1
Leaves of potted grapevines c.v. “Müller-Thurgau” were sprayed to runoff point with an aqueous 500 ppm preparation of active compound which had been made up from a stock solution comprising 10% of active compound, 63% of cyclohexanone and 27% of emulsifier. To assess the persistency of the substances, the plants were kept for 7 days in a greenhouse after the spray-coating had dried off. Only then were the leaves inoculated with an aqueous zoospore suspension of Plasmopara viticola. The grapevines were then initially kept in a water vapor-saturated chamber at 24° C. for 48 hours and then in a greenhouse at 20-30° C. for 5 days. After this period of time, the plants were once more kept in a humid chamber for 16 hours to promote sporangiophore eruption. The extent of the infection on the undersides of the leaves was then determined visually.

Pyricularia oryzae = settings: potted rice seedlings c.v. TaiNong 67; protective, aqueous 250 ppm preparation; inoculated the next day; assessed after 6 days; untreated plants 90% infected
Plasmopara viticola [2] = test: Comparative Experiment 4 - activity against Plasmopara viticola on grapevine leaves (persistency, 250 ppm); settings: potted grapevines c.v. Müller-Thurgau; aqueous 250 ppm preparation sprayed to runoff; inoculated 7 days after treatment; untreated plants 85% infected
From the text: as §1
Leaves of potted grapevines c.v. “Müller-Thurgau” were sprayed to runoff point with an aqueous 250 ppm preparation of active compound which had been made up from a stock solution comprising 10% of active compound, 63% of cyclohexanone and 27% of emulsifier. To assess the persistency of the substances, the plants were kept for 7 days in a greenhouse after the spray-coating had dried off. Only then were the leaves inoculated with an aqueous zoospore suspension of Plasmopara viticola. The grapevines were then initially kept in a water vapor-saturated chamber at 24° C. for 48 hours and then in a greenhouse at 20-30° C. for 5 days. After this period of time, the plants were once more kept in a humid chamber for 16 hours to promote sporangiophore eruption. The extent of the infection on the undersides of the leaves was then determined visually.

Row | Structure (SMILES) | infection (extent of the rust fungus development on the leaves) (Puccinia recondita) | infection (extent of the infection on the undersides of the leaves, determined visually) (Plasmopara viticola [1]) | infection (extent of the development of the disease on the leaves, determined visually) (Pyricularia oryzae) | infection (extent of the infection on the undersides of the leaves, determined visually) (Plasmopara viticola [2])
1 | Cc1nc(Nc2ccccc2)nc(C#N)c1C [I.9, 4-Cyano-5,6-dimethyl-2-(phenylamino)pyrimidine] | 30% | 5% |  | 
2 | Cc1nc(Nc2ccccc2)nc(C(F)(F)F)c1C [I.18] |  |  | 15% | 
3 | CON=Cc1nc(Nc2ccccc2)nc(C)c1C [I.62, 5,6-Dimethyl-4-(N-methoxyimino)methyl-2-(N-phenylamino)pyrimidine] |  |  |  | 10%
4 | Cc1cc(C#N)nc(Nc2ccccc2)n1 [active compound A] | 100% | 50% |  | 
5 | Cc1cc(C(F)(F)F)nc(Nc2ccccc2)n1 [active compound B] |  |  | 80% | 
6 | CON=Cc1cc(C)nc(Nc2ccccc2)n1 [active compound C] |  |  |  | 60%
